Test results published in patent publication US9670227B2, “Thienopyrimidine derivatives, a process for their preparation and pharmaceutical compositions containing them” (LES LABORATOIRES SERVIER, priority 2013, dated 2017).

Target: Mcl-1 protein (UniProtKB primary accession number: Q07820) (Homo sapiens, UniProt Q07820)
Experiment: Inhibition of Mcl-1 by fluorescence polarisation, Method 1
Type: binding
Settings: fluorescence polarisation; Method 1, or Method 2; read-out: IC50 (M) Mcl-1 FP
How it was run: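 Compounds were tested as 11-point serial dilutions at 5% final DMSO against 5 nM Mcl-1 with 1 nM fluorescein-labelled ligand in 10 mM HEPES, 150 mM NaCl, 0.05% Tween 20, pH 7.4. Relative binding potency was read by fluorescence polarisation.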

Sequence of Mcl-1 protein (Q07820 whole entry): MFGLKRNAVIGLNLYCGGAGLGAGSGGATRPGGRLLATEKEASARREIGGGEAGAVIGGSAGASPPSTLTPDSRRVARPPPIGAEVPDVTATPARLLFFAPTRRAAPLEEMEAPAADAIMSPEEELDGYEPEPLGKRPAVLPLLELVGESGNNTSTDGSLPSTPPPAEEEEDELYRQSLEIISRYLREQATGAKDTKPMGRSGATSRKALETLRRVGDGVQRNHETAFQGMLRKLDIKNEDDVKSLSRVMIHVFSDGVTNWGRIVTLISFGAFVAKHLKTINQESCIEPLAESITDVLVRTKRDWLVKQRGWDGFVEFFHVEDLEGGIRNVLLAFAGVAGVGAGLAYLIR

SMILES | IC50 [M]
CCc1sc2ncnc(O[C@@H](Cc3cccc4ccoc34)C(=O)O)c2c1-c1ccc(OCCN2CCN(C)CC2)c(Cl)c1C [Example 462, (2S)-3-(1-benzofuran-7-yl)-2-[((5Ra)-5-{3-chloro-2-methyl-4-[2-(4-methylpiperazin-1-yl)ethoxy]phenyl}-6-ethylthieno[2,3-d]pyrimidin-4-yl)oxy]propanoic acid] | 3.7e-05
CCc1sc2ncnc(OC(Cc3ccccc3F)C(=O)O)c2c1-c1ccc(OCCN2CCN(C)CC2)c(Cl)c1C [Example 464, (2S)-2-[((5Ra)-5-{3-chloro-2-methyl-4-[2-(4-methylpiperazin-1-yl)ethoxy]phenyl}-6-ethylthieno[2,3-d]pyrimidin-4-yl)oxy]-3-(2-fluorophenyl)propanoic acid] | 3.9e-07
CC#Cc1sc2ncnc(OC(Cc3ccccc3OC)C(=O)O)c2c1-c1cc(N2CCN(C)CC2)c(OC)c(Cl)c1C [Example 473, (2R)-2-({(5Sa)-5-[3-chloro-4-methoxy-2-methyl-5-(4-methylpiperazin-1-yl)phenyl]-6-(prop-1-yn-1-yl)thieno[2,3-d]pyrimidin-4-yl}oxy)-3-(2-methoxyphenyl)propanoic acid] | 5e-08
CC#Cc1sc2ncnc(OC(Cc3ccccc3OC)C(=O)O)c2c1-c1cc(C)c(OCCN2CCN(C)CC2)c(Cl)c1C [Example 474, (2R)-2-{[(5Ra)-5-{3-chloro-2,5-dimethyl-4-[2-(4-methylpiperazin-1-yl)ethoxy]phenyl}-6-(prop-1-yn-1-yl)thieno[2,3-d]pyrimidin-4-yl]oxy}-3-(2-methoxyphenyl)propanoic acid] | 5.5e-07
CC#Cc1sc2ncnc(OC(Cc3ccccc3OC)C(=O)O)c2c1-c1ccc(O)c(Cl)c1C [Example 480, (2R)-2-{[(5Sa)-5-(3-chloro-4-hydroxy-2-methylphenyl)-6-(prop-1-yn-1-yl)thieno[2,3-d]pyrimidin-4-yl]oxy}-3-(2-methoxyphenyl)propanoic acid] | 2.8e-08
CC#Cc1sc2ncnc(O[C@H](Cc3ccccc3OCc3ccnc(-c4ccccc4OC)n3)C(=O)O)c2c1-c1ccc(OCCN2CCN(C)CC2)c(Cl)c1C [Example 482, (2R)-2-{[(5Sa)-5-{3-chloro-2-methyl-4-[2-(4-methylpiperazin-1-yl)ethoxy]phenyl}-6-(prop-1-yn-1-yl)thieno[2,3-d]pyrimidin-4-yl]oxy}-3-(2-{[2-(2-methoxyphenyl)pyrimidin-4-yl]methoxy}phenyl)propanoic acid] | 7.4e-09
CC#Cc1sc2ncnc(OC(Cc3ccccc3OCc3ccnn3CCCC)C(=O)O)c2c1-c1ccc(OCCN2CCN(C)CC2)c(Cl)c1C [Example 490, (2R)-3-{2-[(1-butyl-1H-pyrazol-5-yl)methoxy]phenyl}-2-{[(5Sa)-5-{3-chloro-2-methyl-4-[2-(4-methylpiperazin-1-yl)ethoxy]phenyl}-6-(prop-1-yn-1-yl)thieno[2,3-d]pyrimidin-4-yl]oxy}propanoic acid] | 3e-09
CC/C=C\c1sc2ncnc(O[C@H](Cc3ccccc3)C(=O)O)c2c1-c1ccc(OCCN2CCN(C)CC2)c(Cl)c1C [Example 493, (2R)-2-[(6-[(1Z)-but-1-en-1-yl]-(5Sa)-5-{3-chloro-2-methyl-4-[2-(4-methylpiperazin-1-yl)ethoxy]phenyl}thieno[2,3-d]pyrimidin-4-yl)oxy]-3-phenylpropanoic acid] | 5e-09
CC(C)=Cc1sc2ncnc(OC(Cc3ccccc3)C(=O)O)c2c1-c1ccc(OCCN2CCN(C)CC2)c(Cl)c1C [Example 494, (2R)-2-{[(5Sa)-5-{3-chloro-2-methyl-4-[2-(4-methylpiperazin-1-yl)ethoxy]phenyl}-6-(2-methylprop-1-en-1-yl)thieno[2,3-d]pyrimidin-4-yl]oxy}-3-phenylpropanoic acid] | 4.4e-08
Cc1c(-c2c(-c3cc4ccccc4o3)sc3ncnc(OC(Cc4ccccc4)C(=O)O)c23)ccc(OCCN2CCN(C)CC2)c1Cl [Example 496, (2R)-2-{[6-(1-benzofuran-2-yl)-(5Sa)-5-{3-chloro-2-methyl-4-[2-(4-methylpiperazin-1-yl)ethoxy]phenyl}thieno[2,3-d]pyrimidin-4-yl]oxy}-3-phenylpropanoic acid] | 2e-07
Cc1c(-c2c(-c3ccc(F)cc3)sc3ncnc(OC(Cc4ccccc4)C(=O)O)c23)ccc(OCCN2CCN(C)CC2)c1Cl [Example 498, (2R)-2-{[(5Sa)-5-{3-chloro-2-methyl-4-[2-(4-methylpiperazin-1-yl)ethoxy]phenyl}-6-(4-fluorophenyl)thieno[2,3-d]pyrimidin-4-yl]oxy}-3-phenylpropanoic acid] | 7.4e-08
Cc1c(-c2c(-c3ccccc3)sc3ncnc(OC(Cc4ccccc4)C(=O)O)c23)ccc(OCCN2CCN(C)CC2)c1Cl [Example 502, (2R)-2-[((5Sa)-5-{3-chloro-2-methyl-4-[2-(4-methylpiperazin-1-yl)ethoxy]phenyl}-6-phenylthieno[2,3-d]pyrimidin-4-yl)oxy]-3-phenylpropanoic acid] | 1.9e-08
Cc1c(-c2c(-c3ccco3)sc3ncnc(OC(Cc4ccccc4)C(=O)O)c23)ccc(OCCN2CCN(C)CC2)c1Cl [Example 504, (2R)-2-{[(5Sa)-5-{3-chloro-2-methyl-4-[2-(4-methylpiperazin-1-yl)ethoxy]phenyl}-6-(furan-2-yl)thieno[2,3-d]pyrimidin-4-yl]oxy}-3-phenylpropanoic acid] | 2.9e-08
Cc1c(-c2c(-c3cccs3)sc3ncnc(OC(Cc4ccccc4)C(=O)O)c23)ccc(OCCN2CCN(C)CC2)c1Cl [Example 505, (2R)-2-{[(5Sa)-5-{3-chloro-2-methyl-4-[2-(4-methylpiperazin-1-yl)ethoxy]phenyl}-6-(thiophen-2-yl)thieno[2,3-d]pyrimidin-4-yl]oxy}-3-phenylpropanoic acid] | 5.8e-08
Cc1c(-c2c(-c3ccncc3)sc3ncnc(OC(Cc4ccccc4)C(=O)O)c23)ccc(OCCN2CCN(C)CC2)c1Cl [Example 507, (2R)-2-{[(5Sa)-5-{3-chloro-2-methyl-4-[2-(4-methylpiperazin-1-yl)ethoxy]phenyl}-6-(pyridin-4-yl)thieno[2,3-d]pyrimidin-4-yl]oxy}-3-phenylpropanoic acid] | 2.2e-07
Cc1c(-c2c(-c3ccnn3C)sc3ncnc(OC(Cc4ccccc4)C(=O)O)c23)ccc(OCCN2CCN(C)CC2)c1Cl [Example 508, (2R)-2-{[(5Sa)-5-{3-chloro-2-methyl-4-[2-(4-methylpiperazin-1-yl)ethoxy]phenyl}-6-(1-methyl-1H-pyrazol-5-yl)thieno[2,3-d]pyrimidin-4-yl]oxy}-3-phenylpropanoic acid] | 3.7e-07
Cc1sccc1-c1sc2ncnc(OC(Cc3ccccc3)C(=O)O)c2c1-c1ccc(OCCN2CCN(C)CC2)c(Cl)c1C [Example 511, (2R)-2-{[(5Sa)-5-{3-chloro-2-methyl-4-[2-(4-methylpiperazin-1-yl)ethoxy]phenyl}-6-(2-methylthiophen-3-yl)thieno[2,3-d]pyrimidin-4-yl]oxy}-3-phenylpropanoic acid] | 4.8e-07
Cc1c(-c2c(-c3cnn(C)c3)sc3ncnc(OC(Cc4ccccc4)C(=O)O)c23)ccc(OCCN2CCN(C)CC2)c1Cl [Example 513, (2R)-2-{[(5Sa)-5-{3-chloro-2-methyl-4-[2-(4-methylpiperazin-1-yl)ethoxy]phenyl}-6-(1-methyl-1H-pyrazol-4-yl)thieno[2,3-d]pyrimidin-4-yl]oxy}-3-phenylpropanoic acid] | 3.7e-07
Cc1nc(-c2sc3ncnc(OC(Cc4ccccc4)C(=O)O)c3c2-c2ccc(OCCN3CCN(C)CC3)c(Cl)c2C)cs1 [Example 515, (2R)-2-{[(5Sa)-5-{3-chloro-2-methyl-4-[2-(4-methylpiperazin-1-yl)ethoxy]phenyl}-6-(2-methyl-1,3-thiazol-4-yl)thieno[2,3-d]pyrimidin-4-yl]oxy}-3-phenylpropanoic acid] | 8.4e-08
Cc1ccsc1-c1sc2ncnc(OC(Cc3ccccc3)C(=O)O)c2c1-c1ccc(OCCN2CCN(C)CC2)c(Cl)c1C [Example 517, (2R)-2-{[(5Sa)-5-{3-chloro-2-methyl-4-[2-(4-methylpiperazin-1-yl)ethoxy]phenyl}-6-(3-methylthiophen-2-yl)thieno[2,3-d]pyrimidin-4-yl]oxy}-3-phenylpropanoic acid] | 5.1e-07
CC#Cc1sc2ncnc(OC(Cc3ccccc3)C(=O)O)c2c1-c1ccc(OCCN2CCN(C)CC2)c(Cl)c1C [Example 519, (2R)-2-{[(5Sa)-5-{3-chloro-2-methyl-4-[2-(4-methylpiperazin-1-yl)ethoxy]phenyl}-6-(prop-1-yn-1-yl)thieno[2,3-d]pyrimidin-4-yl]oxy}-3-phenylpropanoic acid] | 2.3e-08
Cc1c(-c2c(C#CC3CC3)sc3ncnc(OC(Cc4ccccc4)C(=O)O)c23)ccc(OCCN2CCN(C)CC2)c1Cl [Example 520, (2R)-2-{[(5Sa)-5-{3-chloro-2-methyl-4-[2-(4-methylpiperazin-1-yl)ethoxy]phenyl}-6-(cyclopropylethynyl)thieno[2,3-d]pyrimidin-4-yl]oxy}-3-phenylpropanoic acid] | 4.1e-08

Same assay, conditions: partial inhibitors; @ 10 uM test compound

SMILES | percentage fluorescence polarisation inhibition, Mcl-1 FP [% @ 10 uM]
CC#Cc1sc2ncnc(O[C@H](Cc3ccccc3OC)C(=O)O)c2c1-c1cc(N2CCN(C)CC2)c(OC)c(Cl)c1C [Example 472, (2R)-2-({(5Ra)-5-[3-chloro-4-methoxy-2-methyl-5-(4-methylpiperazin-1-yl)phenyl]-6-(prop-1-yn-1-yl)thieno[2,3-d]pyrimidin-4-yl}oxy)-3-(2-methoxyphenyl)propanoic acid] | 13.05
CC#Cc1sc2ncnc(O[C@@H](Cc3cccc4occc34)C(=O)O)c2c1-c1ccc(OCCN2CCN(C)CC2)c(Cl)c1C [Example 491, (2S)-3-(1-benzofuran-4-yl)-2-{[(5Ra)-5-{3-chloro-2-methyl-4-[2-(4-methylpiperazin-1-yl)ethoxy]phenyl}-6-(prop-1-yn-1-yl)thieno[2,3-d]pyrimidin-4-yl]oxy}propanoic acid] | 28.3
